The results in this text go back to US20090143236A1, “Method of detecting cancer cell acquiring drug-resistance” (BML, INC., priority 2004, published 2009).

This assay deals with SKOV3 cells and SKOV3/VP cells. Briefly: Caspase activity (colorimetric CaspACE assay) of ovarian cancer cells treated with VP-16. Type of assay: cell-based, Human. As to conditions: 100 μg/ml VP-16, 24 hours; FIG. 4A. The method, then: Caspase activity was measured using a calorimetric CaspACE assay system (Promega Co., Madison, Wis., U.S.A.) in accordance with the instructions included therewith. SKOV3 cells and SKOV3/VP cells were cultured for 24 hours in the presence of 100 μg/ml VP-16, or VP-16 and the caspase inhibitor Z-VAD-FMK, or in the presence of only a medium (control). The cells were dissolved in a lysis buffer, and the resultant was then subjected to centrifugation at 4° C. at 15,000×g for 20 minutes. The supernatant (containing 100 μg of protein) was incubated with a substrate (Ac-DEVD-pNA) used for the measurement of caspase activity at 37° C. for 4 hours. Thereafter, the absorbance at 405 nm was measured, so as to obtain the activity.
The influence of BCL2L2 gene expression on apoptosis induced by anticancer drugs was analyzed. Human ovarian cancer SKOV3 cells and etoposide-resistant ovarian cancer SKOV3/VP cells were cultured for 24 hours in the presence of 100 μg/ml VP-16, so as to measure apoptosis associated with activation of caspase-3. […] Thereafter, in order to analyze the role of the BCL2L2 gene, the cells were treated with the antisense oligonucleotide of BCL2L2, and the influence of VP-16 was analyzed under conditions wherein expression of the BCL2L2 gene was suppressed. […]

As for `COc1cc([C@@H]2c3cc4c(cc3[C@@H](O[C@@H]3O[C@@H]5CO[C@@H](C)O[C@H]5[C@H](O)[C@H]3O)[C@H]3COC(=O)[C@H]23)OCO4)cc(OC)c1O` [VP-16, etoposide], the “caspase activity in etoposide-resistant SKOV3/VP cells compared with parent line SKOV3” value is “decreased to approximately one-half”.
